# Measurements from PMC8145986, “In Vitro Enzymatic and Kinetic Studies, and In Silico Drug-Receptor Interactions, and Drug-Like Profiling of the 5-Styrylbenzamide Derivatives as Potential Cholinesterase and β-Secretase Inhibitors with Antioxidant Properties” (Antioxidants, 2021).
# Tested on: A549 cells
# Experiment: LPS-induced ROS production in A549 cells (H2DCF-DA)
# Assay type: cell-based, human
# Conditions: 10 μM compound, LPS 1 μg/mL, 24 h (Figure 9b)
# Experimental: Mitochondrial ROS levels in Vero and A549 cell lines was measured using the 2′,7′-dichlorofluorescin diacetate (H2DCF-DA) (Sigma-Aldrich, St. Louis, MO, USA, Merck, Darmstadt, Germany), fluorescent probe. Cells (1 × 10^5) were seeded in 96 well plates and incubated overnight at 37 °C in 5% CO2. A minimum non-toxic concentration (10 μM) of compounds (2a and 3b) was added separately as treatment and further incubated for an hour, after which LPS (1 μg/mL) was added to induce the production of ROS. After 24 h of incubation, the media was aspirated, cells were rinsed with PBS, and followed by the addition of H2DCF-DA (10 μM) for 30 min in the dark. The absorbance of the fluorescence was measured using a microplate reader (VarioSkan Flash, Thermo Fisher Scientific, Finland) at 485 and 535 nm values of excitation and emission, respectively. Data was processed and analysed using ANOVA, which was followed by Duncan’s multiple comparison test.
smiles,measurement,value
"NC(=O)c1cc(/C=C/c2ccccc2)ccc1N [Compound 2a, (E)-2-Amino-5-styrylbenzamide]",ROS reduction,about 65%
